Measured values taken from ChEMBL document CHEMBL1944562, “Design, synthesis of some new (2-aminothiazol-4-yl)methylester derivatives as possible antimicrobial and antitubercular agents” (2012).
Converted amounts (≈) assume the structure as drawn.

System: Mycobacterium tuberculosis
Assay: Antitubercular activity against Multidrug-resistant Mycobacterium tuberculosis after 7 days by resazurin assay
Format: functional
Conditions: 168 h

| Compound | MIC [mg/L] |
| --- | --- |
| Nc1nc(COC(=O)c2ccc(Br)cc2)cs1 | 2.5 (≈ 7.98 µM) |
| Nc1nc(COC(=O)Cc2cccc(C(F)(F)F)c2)cs1 | 6.25 (≈ 19.8 µM) |
| Nc1nc(COC(=O)C2(c3ccc(Cl)cc3)CC2)cs1 | > 50 |
| Nc1nc(COC(=O)c2ccccc2[N+](=O)[O-])cs1 | 12.5 (≈ 44.8 µM) |
| CO[C@H]1/C=C/O[C@@]2(C)Oc3c(C)c(O)c4c(O)c(c(/C=N/N5CCN(C)CC5)c(O)c4c3C2=O)NC(=O)/C(C)=C\C=C\[C@H](C)[C@H](O)[C@@H](C)[C@@H](O)[C@@H](C)[C@H](OC(C)=O)[C@@H]1C [RIFAMPIN] | 25 (≈ 30.4 µM) |
| Nc1nc(COC(=O)c2cccc([N+](=O)[O-])c2Cl)cs1 | 6.25 (≈ 19.9 µM) |
| Nc1nc(COC(=O)Cc2ccccc2OC(F)(F)F)cs1 | > 50 |
| N#Cc1ccccc1C(=O)OCc1csc(N)n1 | > 50 |
| N#CCCc1cccc(C(=O)OCc2csc(N)n2)c1 | 6.25 (≈ 21.8 µM) |
| Nc1nc(COC(=O)c2c(F)cc(F)cc2F)cs1 | 25 (≈ 86.7 µM) |
| Nc1nc(COC(=O)c2ccc3ccccc3c2)cs1 | > 50 |
| N#Cc1cccc(C(=O)OCc2csc(N)n2)n1 | > 50 |
| Nc1nc(COC(=O)c2cccs2)cs1 | > 50 |
| Nc1nc(COC(=O)c2c(Cl)cc(Cl)cc2Cl)cs1 | > 50 |
| Nc1nc(COC(=O)c2c(F)cccc2Cl)cs1 | 6.25 (≈ 21.8 µM) |
| Nc1nc(COC(=O)c2cc(F)cc(C(F)(F)F)c2)cs1 | > 50 |
| NNC(=O)c1ccncc1 [ISONIAZID] | 12.5 (≈ 91.1 µM) |
| Nc1nc(COC(=O)c2ccc([N+](=O)[O-])cc2)cs1 | 1.25 (≈ 4.48 µM) |
